Experimental data taken from patent publication US20260123630A1, “COMPOSITIONS INCLUDING ENCAPSULATED BIXLOZONE AND NON ENCAPSULATED BIXLOZONE” (FMC CORPORATION, priority 2022, published 2026).

Test system: corn
Experiment: Crop injury studies in corn
Type: in vivo
Procedure: The maximum crop injury from encapsulated and non-encapsulated bixlozone compositions were assessed for corn. The compositions were applied at post-seeding pre-emergence and post-emergence.
The numbers in parentheses indicate the application rate of the applied compositions in g ai/ha.

CCCCCC(C)OC(=O)COc1ccc(Cl)c2cccnc12 (centres unmarked) [cloquintocet-mexyl]
Effect of mixture partner on crop injury (in words) (post-emergence BBCH 11-12, FIG. 5): no observed effect
Effect of mixture partner on crop injury (in words) (post-emergence BBCH 13-15, FIG. 6): no observed effect
